Reference: patent US11197831B2, “Compositions comprising at least one dispersed active principle and lipid microcapsules” (GALDERMA RESEARCH & DEVELOPMENT, priority 2015, dated 2021)
Each block holds one compound with its values, some of them ahead of it.

How the values were obtained:
[1] = Maximum or visual solubility of the active ingredient in fatty substances and solvents (HPLC-UV); type: physicochemical
Method: (§1) The solubility and the stability of the active ingredient were evaluated by liquid chromatography coupled to a UV detector (HPLC-UV).
The solubility of the active ingredient was evaluated by liquid chromatography coupled to a UV detector (HPLC-UV).

[2] = Stability of the active ingredient in fatty substances and solvents (HPLC-UV); type: physicochemical
Method: as §1

[3] = tested on: Whole human abdominal skin; assay: In vitro skin penetration of dispersed Compound A2 (Franz cells, LC/MS/MS); type: in vitro ADME; conditions: irrespective of the formulation tested; 24 h
Method: In this study, the formulations were applied for 24 hours to the skin surface. At the end of the application, Compound A2 is quantified in the various skin compartments: stratum corneum, epidermis, dermis, and receiving liquid according to a validated bioanalysis method performed by positive electrospray ionization tandem mass spectrometry, using a Xevo system (Waters). The quantification limit for Compound A2 is 2 ng/mL. The LC/MS/MS conditions developed made it possible to detect up to 0.1% of the dose applied in each compartment (dose not absorbed, stratum, epidermis, dermis, and receiving liquid).
The results presented in FIG. 5 show the amount penetrated as a percentage of the dose applied (% of the dose applied) according to the various skin compartments.

[4] = tested on: Whole human abdominal skin; assay: In vitro skin penetration kinetics of dispersed Trifarotene (Franz cells, LC/MS/MS); type: in vitro ADME; conditions: irrespective of the formulation tested; 24 h
Method: In this study, the formulations were applied for 24 hours to the skin surface. After the application, Trifarotene is quantified at several points in time (1 h, 3 h, 6 h, 8 h and 24 h) in the various skin compartments: stratum corneum, epidermis, dermis, and receiving liquid according to a validated bioanalysis method performed by positive electrospray ionization tandem mass spectrometry, using a Xevo system (Waters). The quantification limit for Trifarotene is 0.01 ng/mL. […] [table] The results presented in FIG. 1 show the amount penetrated as a percentage of the dose applied (% of the dose applied) according to the various skin compartments after 24 h of exposure. The total amount penetrated corresponds to the amount of active ingredient assayed in the various skin compartments (stratum corneum, epidermis, dermis) and the receiving liquid. FIGS. 3 and 4 present the areas under the curve (AUCs) calculated respectively after 8 hours, corresponding to the shortest exposure times, and after 24 hours, corresponding to the longest exposure times. The AUCs were calculated for each kinetics (n=6). They were then statistically compared by one-way ANOVA followed by Dunnett's test.

[5] = in Capric/caprylic acid triglycerides (Miglyol ® 812N)
[6] = in Diisopropyl adipate (Schercemol Dia Ester)
[7] = in Octyldodecanol (Eutanol ® G)
[8] = in PPG-15 stearyl ether (Arlamol PS11E-LQ)
[9] = in Propylene glycol dicaprylate/dicaprate (Myritol ® PC)

Maximum or visual* solubility (% w/w) (AT) ([1]; in Diethylene glycol monoethyl ether (Transcutol HP)): 13.9 % w/w | Maximum or visual* solubility (% w/w) (AT) ([1]; visual*, in Capric/caprylic acid triglycerides (Miglyol ® 812N)): <0.1* % w/w | Maximum or visual* solubility (% w/w) (AT) ([1]; visual*, in Diisopropyl adipate (Schercemol Dia Ester)): <1.0* % w/w | Maximum or visual* solubility (% w/w) (AT) ([1]; visual*, in Dimethyl capramide (Spectrasolv DMDA)): 20-30* % w/w | Maximum or visual* solubility (% w/w) (AT) ([1]; visual*, in PPG-15 stearyl ether (Arlamol PS11E-LQ)): <1.0* % w/w | Stability (3M) (AT/40° C.) ([2]; 3M, AT/40° C., in Diethylene glycol monoethyl ether (Transcutol HP), ** Appearance of coloring at AT and at 40° C.): Stable **
Compound: C[C@H](NC(=O)N1CCC(c2ccc(O)cc2O)CC1)c1ccccc1 [Compound A2, (S)-4-(2,4-dihydroxyphenyl)-N-(1-phenylethyl)piperidine-1-carboxamide]
skin distribution [3]: essentially located in the stratum corneum and the epidermis, and more moderately in the dermis

Maximum solubility (% w/w) (AT) ([1]; in Alkyl (C12-15) benzoate (Crodamol AB)): 0.026 % w/w | Maximum solubility (% w/w) (AT) [1, 5]: 0.019 % w/w | Maximum solubility (% w/w) (AT) [1, 6]: 0.297 % w/w | Maximum solubility (% w/w) (AT) ([1]; in Macrogol oleate (Labrafil ® M1944CS)): 0.156 % w/w | Maximum solubility (% w/w) (AT) ([1]; in Mineral oil): 0.0001 % w/w | Maximum solubility (% w/w) (AT) [1, 7]: 0.137 % w/w | Maximum solubility (% w/w) (AT) [1, 8]: 0.292 % w/w | Maximum solubility (% w/w) (AT) [1, 9]: 0.069 % w/w | Maximum solubility (% w/w) (AT) ([1]; in Propylene glycol monocaprylate (Capryol ® 90)): 0.802 % w/w | Maximum solubility (% w/w) (AT) ([1]; in Propylene glycol monolaurate (Lauroglycol ® FCC)): 0.296 % w/w | Maximum solubility (% w/w) (AT) ([1]; in Sweet almond oil): 0.011 % w/w | Stability ([2]; AT/40° C., in Capric/caprylic acid triglycerides (Miglyol ® 812N)): 6 months | Stability ([2]; AT/40° C., in Diisopropyl adipate (Schercemol Dia Ester)): 6 months | Stability ([2]; AT/40° C., in Macrogol oleate (Labrafil ® M1944CS)): 6 months | Stability ([2]; AT/40° C., in PPG-15 stearyl ether (Arlamol PS11E-LQ)): 6 months | Stability ([2]; AT/40° C., in Propylene glycol monocaprylate (Capryol ® 90)): 6 months | Stability ([2]; AT/40° C., in Propylene glycol monolaurate (Lauroglycol ® FCC)): 6 months | Stability ([2]; AT/40° C., in Sweet almond oil): 6 months | Stability [2, 7]: Unstable | Stability [2, 9]: Unstable
Compound: CC(C)(C)c1cc(-c2cc(-c3ccc(C(=O)O)cc3)ccc2OCCO)ccc1N1CCCC1 [Trifarotene]
skin distribution [4]: essentially located in the stratum corneum and the epidermis, and more moderately in the dermis

Maximum or visual* solubility (% w/w) (AT) ([1]; in 10/90% Dimethyl sulfoxide/C12-15 alkyl lactate): 0.12 % w/w | Maximum or visual* solubility (% w/w) (AT) ([1]; in 10/90% Dimethyl sulfoxide/Diisopropyl adipate): 0.38 % w/w | Maximum or visual* solubility (% w/w) (AT) ([1]; in 10/90% Dimethyl sulfoxide/PPG-15 stearyl ether): 0.07 % w/w | Maximum or visual* solubility (% w/w) (AT) ([1]; in 20/80% Dimethyl sulfoxide/C12-15 alkyl lactate): 0.74 % w/w | Maximum or visual* solubility (% w/w) (AT) ([1]; in 20/80% Dimethyl sulfoxide/Schercemol Dia Ester): 3.15 % w/w | Maximum or visual* solubility (% w/w) (AT) ([1]; in C12-15 alkyl lactate (Ceraphyl 41)): 0.04 % w/w | Maximum or visual* solubility (% w/w) (AT) [1, 5]: <detection limit | Maximum or visual* solubility (% w/w) (AT) [1, 6]: 0.02 % w/w | Maximum or visual* solubility (% w/w) (AT) [1, 8]: 0.01 % w/w | Maximum or visual* solubility (% w/w) (AT) ([1]; visual*, in Dimethyl sulfoxide (Procipient DMSO)): >20%* % w/w
Compound: Cc1cc(COc2ccc(S(=O)(=O)NC[C@@H](C(=O)NO)N3CCN(S(=O)(=O)C(C)C)CC3)cc2)c2ccccc2n1 [Compound A3, (S)—N-hydroxy-3-[4-(2-methyl-quinolin-4-ylmethoxy)-benzenesulfonylamino]-2-[4-(propane-2-sulfonyl)-piperazin-1-yl]-propionamide]
